Where no end group is shown, it is not given here.

These results are taken from patent US9320810B2, “HMGN2 peptides and related molecules that selectively home to tumor blood vessels and tumor cells” (Sanford-Burnham Medical Research Institute, priority 2002, dated 2016).

The test system of assay [1] is human bone marrow mononuclear cells. As to the kind of experiment: Flow cytometry of fluorescein-labeled peptide binding to human bone marrow mononuclear cells. In kind it is cell-based. To be noted: FIG. 4, fluorescent peptide. On the procedure:
Fluorescein-labeled SEQ ID NO: 9 or control peptide SEQ ID NO: 13 (2 μM) were incubated with gradient-depleted bone marrow cells for one hour at 4° C. and analyzed in a flow cytometer. […] The SEQ ID NO: 9-positive cells were the size of lymphocytes, agranular, CD45-positive and mostly CD34-negative, a marker profile similar to that of the lineage-depleted murine bone marrow cells used in the in vitro phage selection.
Flow cytometry was performed as follows. Human bone marrow specimens represented excess material from samples collected for diagnostic purposes from adults with hematological malignancies following informed consent. A total of 2 ml of bone marrow was aspirated from the posterior iliac crest and stored in a citrate anticoagulant. Mononuclear cells were isolated by gradient centrifugation (Ficoll-Paque PLUS; Amersham Pharmacia Biotech; Uppsala, Sweden) and incubated in RPMI-1640 media supplemented with 10% FBS for two hours at 37° C. Cells subsequently were transferred to 4° C. and incubated with 1-2 μM fluorescein-conjugated peptide for 45 minutes before staining with PerCP- or PE-conjugated CD34 and CD45 antibodies (Beckton Dickinson Biosciences; San Jose, Calif.) for 30 minutes. Samples were analyzed with either a FACSCalibur or LSR flow cytometer (Beckton Dickinson Biosciences); 100,000 events were collected.
A general note: In flow cytometry, cells or beads pass a laser one at a time.

In assay [2] the test system is HL-60 xenograft tumors. As to the kind of experiment: Tissue localization of intravenously injected fluorescein-conjugated peptide, HL-60 xenograft mice. To be noted: tail vein. In kind it is in vivo, mouse. On the procedure:
To study peptide localization, fluorescein-conjugated SEQ ID NO: 9 or ARALPSQRSR (SEQ ID NO: 13) was injected into the tail vein of mice bearing HL-60 or MDA-MB-435 xenografts. Peptide injection was followed 10 minutes later by injection of biotinylated tomato lectin, a marker of the vasculature. After another five minutes, mice were perfused through the heart with fixative solution, and the organs dissected, sectioned and stained with streptavidin-AlexaFluor 594. Slides were counter-stained with DAPI and examined under an inverted fluorescent microscope.
As shown in FIGS. 3A and G-J, fluorescence predominantly localized to nuclei, with most of the tumor cells containing fluorescence positioned close to blood vessels. […] In some microscopic fields, SEQ ID NO: 9 fluorescence essentially was limited to the endothelial cells, clearly illustrating the expression of peptide SEQ ID NO: 9 within endothelial cells and their nuclei (see FIG. 3F).
Histological analyses were performed as follows. […] Biotin-conjugated lectin was detected with streptavidin-Alexa 594 (Molecular Probes; Eugene, Oreg.); the slides were mounted with Vectashield-DAPI (Vector Laboratories; Burlingame, Calif.), and examined under an inverted fluorescent microscope.

The test system of assay [3] is mitochondrial membranes. To be noted: cited from earlier work.
For assay [4], the system named is HL-60 cells. In words: Phage binding to cultured HL-60 cells in vitro. In kind it is cell-based, human. To be noted: phage-displayed HMGN1 exon 3 sequence. On the procedure:
(§1) In particular, about 1000 times more SEQ ID NO:5-displaying phage than non-recombinant T7 phage bound to cultured HL-60 or MDA-MB-435 cells in vitro. Similarly, SEQ ID NO:5-displaying also bound cell suspensions prepared from HL-60 tumors with a 1000-fold specificity relative to control T7 phage.
The phage binding assay was performed essentially as follows. Attachment of phage to cells was quantified by incubating 1×10^8 pfu of phage displaying SEQ ID NO: 9 for 60 minutes with 1×10^6 HL-60 cells at 4° C. in Tris-buffered saline with 1 mM Ca^+2 and 1 mM MgCl2. Bound phage were rescued after four washes with phosphate-buffered saline by adding 1 ml of bacteria for 7 minutes at room temperature. Bound phage were quantified by plating and counting pfu.
Binding of SEQ ID NO: 9-displaying phage to tumor cells was inhibited by free SEQ ID NO: 9 peptide in a dose dependent fashion. […] In contrast, background binding of non-recombinant phage was unaffected by free peptide. Specificity of cell binding by peptide SEQ ID NO: 9 was further confirmed by comparing HL-60 cell binding of phage expressing the HMGN2 exon 3 sequence PQRRSARLSA (SEQ ID NO: 11) to binding with phage expressing the homologous HMGN1 exon 3 sequence PKRRSARLSA (SEQ ID NO: 12).

Assay [5] has as its system primary cells obtained from HL-60 xenograft tumors. In words: Phage binding to primary cells obtained from HL-60 xenograft tumors. It counts as cell-based, human. As to conditions: phage-displayed.
Excerpt: as §1
Phage displaying a set of sequences corresponding to fragments of the amino-terminal portion of HMGN2 (SEQ ID NO: 5) were constructed to localize the region responsible for cell binding and in vivo homing. Fragments were designed to follow the exon/intron boundaries of the HMGN2 gene. Inserts encoding the indicated fragments were amplified from the full length HMGN2 phage clone by PCR, purified, digested and directionally cloned into the T7 415-1 and 10-3 vectors. Phage were packaged, amplified and sequenced according to the manufacturer's instructions. Phage preparations were then tested for binding to primary cells obtained from HL-60 xenograft tumors. After a 1 hour incubation at 4° C., cells were washed, and bound phage quantified. […] Furthermore, phage displaying the N-terminal portion of the active fragment SEQ ID NO: 9, which corresponds to exon 3 of the HMGN2 gene, were prepared. These phage expressing the sequence PQRRSARLSA (SEQ ID NO: 11) bound to tumor cells 90-fold more than non-recombinant phage.
Background: A xenograft is tissue or cells of one species grown in another, often human tumour cells in immunodeficient mice.

As to “ARALPSQRSR (not fully specified (N-terminus); also: fluorescein label) [SEQ ID NO: 13, fluorescein-labeled scrambled exon 3 control peptide]”, in assay [1], the “number of cells in lower right quadrant (FACS)” value is 1 and the “percentage of cells in lower right quadrant (FACS)” value is 0.0. Also, the “fluorescence in tumor tissue” value in assay [2] (fluorescein-conjugated peptide, about 15 minutes circulation) was “essentially undetectable in other tissues, including the HL-60 tumors”. In addition, in assay [2] (fluorescein-labeled peptide, non-specific uptake), the fluorescence in kidneys result is recorded as “diffuse fluorescence accumulated in proximal tubules of kidneys”. For the substance “D(KLAKLAK)2: antimicrobial, pro-apoptotic peptide”, the “concentration inducing marked mitochondrial swelling” value in assay [3] is 10 µM. On to PKRRSARLSA [SEQ ID NO: 12], for which the “reduction of HL-60 cell binding relative to HMGN2 phage expressing SEQ ID NO: 11” value in assay [4] is listed as 90%. For PQRRSARLSA [SEQ ID NO: 11], in assay [5], the “binding to tumor cells relative to non-recombinant phage” value worked out at 90 fold.
